Experimental findings from US9932341B2, “Use of pyrazolopyrimidine derivatives for the treatment of PI3K-delta related disorders” (Incyte Corporation, priority 2013, dated 2018) are described below.

The test deals with PI3Kδ (p110δ/p85α) (Homo sapiens (Human), UniProt O00329). Put plainly: PI3Kδ Scintillation Proximity Assay (Example A3). It counts as biochemical. To be noted: 20 μM ATP, 20 μM PIP2, 4 nM PI3Kδ, read-out: PI3Kδ SPA IC50. An outline of the steps: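 SPA with 4 nM p110δ/p85α, 20 μM PIP2, 20 μM ATP plus [γ-^33P]ATP, in 20 mM MOPS pH 6.7, 10 mM MgCl2, 5 mM DTT, 0.03% CHAPS, 0.5% DMSO, room temperature. Stopped with EDTA/ATP, WGA SPA beads, overnight shaking, scintillation counting. IC50 from % control activity vs log concentration.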

Structures can show the parent of a compound that is named as a salt.

Chain of PI3Kδ (p110δ/p85α) (O00329 whole entry): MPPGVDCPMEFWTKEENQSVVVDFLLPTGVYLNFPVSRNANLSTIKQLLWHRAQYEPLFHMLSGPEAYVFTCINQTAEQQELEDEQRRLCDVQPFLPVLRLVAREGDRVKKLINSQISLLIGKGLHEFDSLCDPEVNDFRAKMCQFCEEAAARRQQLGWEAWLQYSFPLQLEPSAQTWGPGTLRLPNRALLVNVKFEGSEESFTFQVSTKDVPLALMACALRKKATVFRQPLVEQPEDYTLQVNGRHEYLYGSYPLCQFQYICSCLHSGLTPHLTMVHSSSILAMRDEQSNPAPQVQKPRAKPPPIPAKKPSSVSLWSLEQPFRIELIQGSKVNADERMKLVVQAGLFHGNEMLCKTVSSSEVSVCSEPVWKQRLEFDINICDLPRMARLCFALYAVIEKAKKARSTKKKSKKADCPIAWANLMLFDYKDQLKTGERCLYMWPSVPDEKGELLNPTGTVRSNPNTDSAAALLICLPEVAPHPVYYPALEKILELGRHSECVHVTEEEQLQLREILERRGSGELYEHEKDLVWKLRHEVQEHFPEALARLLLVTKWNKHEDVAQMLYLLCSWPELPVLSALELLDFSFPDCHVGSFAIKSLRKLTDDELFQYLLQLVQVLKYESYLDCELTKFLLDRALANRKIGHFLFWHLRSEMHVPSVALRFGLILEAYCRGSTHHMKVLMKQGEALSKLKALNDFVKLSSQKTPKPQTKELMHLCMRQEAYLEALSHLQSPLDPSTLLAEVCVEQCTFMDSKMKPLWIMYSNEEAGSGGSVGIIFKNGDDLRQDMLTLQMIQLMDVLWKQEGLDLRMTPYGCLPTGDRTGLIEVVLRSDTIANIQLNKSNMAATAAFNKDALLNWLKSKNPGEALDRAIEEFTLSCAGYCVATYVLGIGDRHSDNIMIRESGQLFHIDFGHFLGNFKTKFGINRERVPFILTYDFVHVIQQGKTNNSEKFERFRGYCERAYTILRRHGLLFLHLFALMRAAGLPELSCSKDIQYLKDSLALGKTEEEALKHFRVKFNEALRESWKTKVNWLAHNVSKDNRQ
Chain of PI3Kδ (p110δ/p85α) (P27986 whole entry partner): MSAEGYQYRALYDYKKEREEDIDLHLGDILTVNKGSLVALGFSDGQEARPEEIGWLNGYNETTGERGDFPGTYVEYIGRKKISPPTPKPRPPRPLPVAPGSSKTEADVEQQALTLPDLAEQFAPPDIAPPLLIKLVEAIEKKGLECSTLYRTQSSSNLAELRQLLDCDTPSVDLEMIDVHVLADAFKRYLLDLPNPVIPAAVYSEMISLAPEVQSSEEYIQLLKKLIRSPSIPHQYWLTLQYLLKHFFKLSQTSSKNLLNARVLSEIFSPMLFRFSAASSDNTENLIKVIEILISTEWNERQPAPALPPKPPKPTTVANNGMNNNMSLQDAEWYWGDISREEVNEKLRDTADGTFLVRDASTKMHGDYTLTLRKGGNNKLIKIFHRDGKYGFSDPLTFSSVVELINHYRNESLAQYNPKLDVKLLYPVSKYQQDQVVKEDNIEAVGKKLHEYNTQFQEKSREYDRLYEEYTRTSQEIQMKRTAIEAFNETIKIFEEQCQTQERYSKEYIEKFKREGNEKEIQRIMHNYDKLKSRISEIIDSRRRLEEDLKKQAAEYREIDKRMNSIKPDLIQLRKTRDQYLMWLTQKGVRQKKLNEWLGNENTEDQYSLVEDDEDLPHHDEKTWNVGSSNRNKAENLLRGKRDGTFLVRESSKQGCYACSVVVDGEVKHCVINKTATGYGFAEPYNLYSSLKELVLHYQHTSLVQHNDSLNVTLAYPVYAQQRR

Turning to `CCN1CC(c2c(Cl)c(Cl)cc(C(C)n3nc(C)c4c(N)ncnc43)c2OC)C1` (stereo not drawn) [298 (1st peak), 1-{1-[4,5-Dichloro-3-(1-ethylazetidin-3-yl)-2-methoxyphenyl]ethyl}-3-methyl-1H-pyrazolo[3,4-d]pyrimidin-4-amine], the IC50 was < 10 nM.

`CCOc1c(C(C)n2nc(C)c3c(N)ncnc32)cc(C)c(C#N)c1C1CN(C(C)C)C1` (racemic) [Example 320, 4-[1-(4-amino-3-methyl-1H-pyrazolo[3,4-d]pyrimidin-1-yl)ethyl]-3-ethoxy-2-(1-isopropylazetidin-3-yl)-6-methylbenzonitrile]: the IC50 was < 10 nM.

For the compound `COc1c(C(C)n2nc(C)c3c(N)ncnc32)cc(Cl)c(C)c1-c1ccnc(C(=O)N(C)CCO)c1` (racemic) [Example 19, 4-{3-[1-(4-amino-3-methyl-1H-pyrazolo[3,4-d]pyrimidin-1-yl)ethyl]-5-chloro-2-methoxy-6-methylphenyl}-N-(2-hydroxyethyl)-N-methylpyridine-2-carboxamide], the IC50 is < 10 nM.

`CCOc1c(C(C)n2nc(C)c3c(N)ncnc32)cc(Cl)c(F)c1C1CN(C[C@H](C)O)C1` (stereo partly drawn) [Example 149, (2S)-1-(3-{3-[1-(4-Amino-3-methyl-1H-pyrazolo[3,4-d]pyrimidin-1-yl)ethyl]-5-chloro-2-ethoxy-6-fluorophenyl}azetidin-1-yl)propan-2-ol]: the concentration for half-maximal inhibition (IC50) was < 10 nM.

Take `COCCN1CC(c2c(C)c(Cl)cc(C(C)n3nc(C)c4c(N)ncnc43)c2OC)C1` (racemic) [Example 9, 1-(1-{5-Chloro-2-methoxy-3-[1-(2-methoxyethyl)azetidin-3-yl]-4-methylphenyl}ethyl)-3-methyl-1H-pyrazolo[3,4-d]pyrimidin-4-amine]: the half-maximal inhibitory concentration (IC50) was < 10 nM.

With `CCOc1c(C(C)n2nc(C)c3c(N)ncnc32)cc(Cl)c(F)c1C1CN(C(C)C)C1` (stereo not drawn) [139 (1st peak), 1-{1-[5-Chloro-2-ethoxy-4-fluoro-3-(1-isopropylazetidin-3-yl)phenyl]ethyl}-3-methyl-1H-pyrazolo[3,4-d]pyrimidin-4-amine], the IC50 was < 10 nM.

For `COc1c(C(C)n2nc(C)c3c(N)ncnc32)cc(Cl)c(C)c1C1CCN(C)CC1` (racemic) [Example 163, 1-{1-[5-Chloro-2-methoxy-4-methyl-3-(1-methylpiperidin-4-yl)phenyl]ethyl}-3-methyl-1H-pyrazolo[3,4-d]pyrimidin-4-amine], the IC50 was < 10 nM.

As for `COc1c(C(C)n2nc(C)c3c(N)ncnc32)cc(Cl)c(C#N)c1C1CN(C(=O)N(C)C)C1` (single isomer, unassigned) [Example 296, 3-{3-[1-(4-Amino-3-methyl-1H-pyrazolo[3,4-d]pyrimidin-1-yl)ethyl]-5-chloro-6-cyano-2-methoxyphenyl}-N,N-dimethylazetidine-1-carboxamide], the IC50 was < 10 nM.

Regarding `CCOc1c(C(C)n2nc(C)c3c(N)ncnc32)cc(Cl)c(C#N)c1N1CC(OC)C1` (racemic) [Example 319, 4-[1-(4-amino-3-methyl-1H-pyrazolo[3,4-d]pyrimidin-1-yl)ethyl]-6-chloro-3-ethoxy-2-(3-methoxyazetidin-1-yl)benzonitrile], the half-inhibitory concentration (IC50) is < 10 nM.

Turning to `COc1c(C(C)n2nc(C)c3c(N)ncnc32)cc(Cl)c(C)c1C1CN(CC#N)C1` (single isomer, unassigned) [Example 105, (3-{3-[1-(4-Amino-3-methyl-1H-pyrazolo[3,4-d]pyrimidin-1-yl)ethyl]-5-chloro-2-methoxy-6-methylphenyl}azetidin-1-yl)acetonitrile], the IC50 is < 10 nM.

On to `CCOc1c(C(C)n2nc(C)c3c(N)ncnc32)cc(Cl)c(C#N)c1C1CN(C(C)(C)C(N)=O)C1` (single isomer, unassigned) [Example 239, 2-{3-(3-[1-(4-Amino-3-methyl-1H-pyrazolo[3,4-d]pyrimidin-1-yl)ethyl]-5-chloro-6-cyano-2-ethoxyphenyl}azetidin-1-yl)-2-methylpropan amide], for which the IC50 is < 10 nM.

Consider `COc1c(C(C)n2nc(C)c3c(N)ncnc32)cc(Cl)c(C#N)c1C1CN(C(C)CO)C1` (centres unmarked) [Example 272, 4-[1-(4-amino-3-methyl-1H-pyrazolo[3,4-d]pyrimidin-1-yl)ethyl]-6-chloro-2-[1-(2-hydroxy-1-methylethyl)azetidin-3-yl]-3-methoxybenzonitrile], for which the half-maximal inhibitory concentration (IC50) was < 10 nM.

As to `CCOc1c(C(C)n2nc(C)c3c(N)ncnc32)cc(Cl)c(C)c1C1CN(C(C)C)C1` (single isomer, unassigned) [Example 94, 1-{1-[5-Chloro-2-ethoxy-3-(1-isopropylazetidin-3-yl)-4-methylphenyl]ethyl}-3-methyl-1H-pyrazolo[3,4-d]pyrimidin-4-amine bis(trifluoroacetate)], the concentration for half-maximal inhibition (IC50) was < 10 nM.

As for `CCOc1c(C(C)n2nc(C)c3c(N)ncnc32)cc(Cl)c(F)c1C1CNC(=O)C1` (single isomer, unassigned) [Example 346, 4-{3-[1-(4-amino-3-methyl-1H-pyrazolo[3,4-d]pyrimidin-1-yl)ethyl]-5-chloro-2-ethoxy-6-fluorophenyl}pyrrolidin-2-one], the IC50 is < 10 nM.

Regarding `CNC(=O)N1CC(c2c(C)c(Cl)cc(C(C)n3nc(C)c4c(N)ncnc43)c2OC)C1` (racemic) [Example 10, 3-{3-[1-(4-Amino-3-methyl-1H-pyrazolo[3,4-d]pyrimidin-1-yl)ethyl]-5-chloro-2-methoxy-6-methylphenyl}-N-methylazetidine-1-carboxamide], the half-maximal inhibitory concentration (IC50) was < 10 nM.

As to `CCOc1c(C(C)n2nc(C)c3c(N)ncnc32)cc(Cl)c(C#N)c1-c1ccc(C(C)(C)O)nc1` (racemic) [Example 316, 4-[1-(4-amino-3-methyl-1H-pyrazolo[3,4-d]pyrimidin-1-yl)ethyl]-6-chloro-3-ethoxy-2-[6-(1-hydroxy-1-methylethyl)pyridin-3-yl]benzonitrile], the IC50 was < 10 nM.

As to `CCOc1c(C(C)n2nc(C)c3c(N)ncnc32)cc(Cl)c(C)c1C1CN(C(=O)[C@H](C)O)C1` (stereo partly drawn) [Example 99, (2S)-1-(3-{3-[1-(4-Amino-3-methyl-1H-pyrazolo[3,4-d]pyrimidin-1-yl)ethyl]-5-chloro-2-ethoxy-6-methylphenyl}azetidin-1-yl)-1-oxopropan-2-ol trifluoroacetate], the IC50 is < 10 nM.

In the case of `CCOc1c(C(C)n2nc(C)c3c(N)ncnc32)cc(Cl)c(C#N)c1C1CN(C(C)(C)C(=O)OC(C)(C)C)C1` (single isomer, unassigned) [Example 236, tert-Butyl 2-(3-{3-[1-(4-amino-3-methyl-1H-pyrazolo[3,4-d]pyrimidin-1-yl)ethyl]-5-chloro-6-cyano-2-ethoxyphenyl}azetidin-1-yl)-2-methylpropanoate], the IC50 is < 10 nM.

In the case of `CCOc1c(C(C)n2nc(C)c3c(N)ncnc32)cc(Cl)c(F)c1C1COC(=O)N1` (single isomer, unassigned) [Example 354, 4-{3-[1-(4-amino-3-methyl-1H-pyrazolo[3,4-d]pyrimidin-1-yl)ethyl]-5-chloro-2-ethoxy-6-fluorophenyl}-1,3-oxazolidin-2-one], the IC50 is < 10 nM.

In the case of `COc1c(C(C)n2nc(C)c3c(N)ncnc32)cc(Cl)c(C)c1C1CNC(=O)O1` (centres unmarked) [Example 325, 5-{3-[1-(4-Amino-3-methyl-1H-pyrazolo[3,4-d]pyrimidin-1-yl)ethyl]-5-chloro-2-methoxy-6-methylphenyl}-1,3-oxazolidin-2-one], the IC50 is < 10 nM.
